# From patent publication US20200384188A1, “SYSTEMS, DEVICES, FORMULATIONS AND METHODS FOR CONTROLLED DRUG DELIVERY” (priority 2017, published 2020)
# Values joined by “and” are separate entries in the source; they are usually repeats but may differ in a detail not shown here. Equal values may be shown once.
# System: rats (Group 1 Sprague-Dawley, Group 4 Han Wister)
# Test: Randall-Selitto test (Brewers Yeast-inflamed hind paw, analgesy meter)
# Assay type: in vivo, rat
# Details: for Force (g) applied to the inflamed (right) paw, individual animals / Force (g) applied to the inflamed (right) paw, mean / % change from baseline, force on inflamed (right) paw / % change from baseline, force on untreated (left) paw / Force (g) applied, Left paw, individual animals / Force (g) applied, Right Paw (inflamed), individual animals / Force (g) applied to the untreated (left) paw, mean: 50 mg/kg sc; for Force (g) applied to the inflamed (right) paw, individual animals: animals R0001-R0006; for Force (g) applied to the inflamed (right) paw, individual animals / Force (g) applied, Left paw, individual animals / Force (g) applied, Right Paw (inflamed), individual animals: 50 mg/kg
# Source text: The Randall Selitto test is a tool to assess the response thresholds to mechanical pressure stimulation following induction of a hyperalgesic state by injection of an inflammatory agent and is considered a measure of mechanical hyperalgesia (Randall and Selitto, 1957). This involves application of an increasing force to the surface of the paw until withdrawal or vocalization occurs. The test can produce results similar to decreases on pressure pain thresholds observed in clinical conditions, such as fibromyalgia, myofascial pain, or osteoarthritis (Arendt-Nielsen et al., 2010; Bennett, 2007; Finan et al., 2013; Hsu et al., 2010). Centrally and peripherally acting effects can be detected using this model, for example, opioids increase the mechanical threshold to the normal and inflamed paw, whereas nonsteroidal anti-inflammatory drugs are only effective in the inflamed paw.
# Eighteen male Sprague-Dawley rats were obtained from Charles River, Margate, United Kingdom, and were used for dosing. Animals weighed between 319 and 419 g on the day of dosing. Eight male Han Wister rats were obtained from Charles River, Margate, United Kingdom and used for Group 4. Animals weighed between 381 and 504 g on the day of dosing. The animals were assessed according to Table 1.
# Animals were dosed subcutaneously via a motorized insulin pump.
# The threshold of a pain response to increasing pressure was measured using an analgesy meter (Ugo Basile, Italy). The animal was gently held by a competent operator, and the hind paw of the animal was positioned over a convex surface (a cone-shaped pusher). A gradually increasing pressure (g) was applied to the upper surface of the paw. The force was continuously monitored by a pointer moving along a linear scale and was stopped by depression of a foot pedal when the animal struggled. A cut-off value of 300 g was adopted (based on available literature and experience).
# Pre-dose Phase: The pressure pain threshold of each animal was tested on two occasions (once in the morning and once in the afternoon). This allowed animals to acclimate to the procedure.
# Day of Dosing: On the day of dosing, each animal was administered a 0.1 mL 20% suspension of Brewers Yeast subcutaneously into the sub-plantar of the right hind paw at approximately 180 minutes prior to ketamine administration. Immediately prior to ketamine administration (Group 4), 15 and 30 minutes and 1, 2, and 4 hours post administration of ketamine, each animal was assessed for a response to increasing pressure on both hind paws (Group 1 used right hind paw, Group 4 used both hind paws), using the analgesy meter. Signs of anesthesia were recorded.
compound,measurement,setting,value
CNC1(c2ccccc2Cl)CCCCC1=O (centres unmarked) [ketamine],"Force (g) applied to the inflamed (right) paw, individual animals","Group 1, 0.25 h",90 g (2×) and 20 g and 40 g (2×) and 120 g
same,"Force (g) applied to the inflamed (right) paw, mean","Group 1, 0.25 h, n=6",153.3 g
same,"Force (g) applied to the inflamed (right) paw, individual animals","Group 1, 0.5 h",100 g and 130 g and 80 g and 170 g and 120 g and 40 g
same,"Force (g) applied to the inflamed (right) paw, mean","Group 1, 0.5 h, n=6",66.7 g
same,"Force (g) applied to the inflamed (right) paw, individual animals","Group 1, 1 h",130 g and 120 g (2×) and 80 g (2×) and 60 g
same,"Force (g) applied to the inflamed (right) paw, mean","Group 1, 1 h, n=6",106.7 g
same,"Force (g) applied to the inflamed (right) paw, individual animals","Group 1, 2 h",60 g and 110 g and 50 g and 200 g and 120 g and 140 g
same,"Force (g) applied to the inflamed (right) paw, mean","Group 1, 2 h, n=6",98.3 g
same,"Force (g) applied to the inflamed (right) paw, individual animals","Group 1, 4 h",120 g (2×) and 110 g and 140 g and 90 g (2×)
same,"Force (g) applied to the inflamed (right) paw, mean","Group 1, 4 h, n=6",113.3 g
same,"pressure required to initiate a response, in words","Group 1, 0.5 to 2 hours post-dose versus the 15 minute time point, majority of animals",increase in pressure required to initiate a response
same,"% change from baseline, force on inflamed (right) paw","Group 4, 0.25 h",−5.7%
same,"% change from baseline, force on untreated (left) paw","Group 4, 0.25 h",−17.0%
same,"Force (g) applied, Left paw, individual animals","Group 4, 0.25 h",60 g and 100 g and 180 g and 90 g and 80 g and 130 g and 110 g and 30 g
same,"Force (g) applied, Right Paw (inflamed), individual animals","Group 4, 0.25 h",10 g and 30 g and 80 g and 50 g and 40 g and 60 g (2×) and 0 g
same,"Force (g) applied to the inflamed (right) paw, mean","Group 4, 0.25 h, n=8",41.3 g
same,"Force (g) applied to the untreated (left) paw, mean","Group 4, 0.25 h, n=8",97.5 g
same,"% change from baseline, force on inflamed (right) paw","Group 4, 0.5 h",34.3%
same,"% change from baseline, force on untreated (left) paw","Group 4, 0.5 h",−9.6%
same,"Force (g) applied, Left paw, individual animals","Group 4, 0.5 h",120 g (2×) and 130 g (2×) and 150 g and 90 g and 70 g and 40 g
same,"Force (g) applied, Right Paw (inflamed), individual animals","Group 4, 0.5 h",40 g (2×) and 50 g and 80 g and 90 g and 70 g and 100 g and 0 g
same,"Force (g) applied to the inflamed (right) paw, mean","Group 4, 0.5 h, n=8",58.8 g
same,"Force (g) applied to the untreated (left) paw, mean","Group 4, 0.5 h, n=8",106.3 g
same,"% change from baseline, force on inflamed (right) paw","Group 4, 1 h",65.7%
same,"% change from baseline, force on untreated (left) paw","Group 4, 1 h",−10.6%
same,"Force (g) applied, Left paw, individual animals","Group 4, 1 h",80 g (3×) and 160 g and 100 g (2×) and 200 g and 40 g
same,"Force (g) applied, Right Paw (inflamed), individual animals","Group 4, 1 h",80 g and 60 g and 140 g and 40 g and 70 g (2×) and 90 g and 30 g
same,"Force (g) applied to the inflamed (right) paw, mean","Group 4, 1 h, n=8",72.5 g
same,"Force (g) applied to the untreated (left) paw, mean","Group 4, 1 h, n=8",105.0 g
same,"% change from baseline, force on inflamed (right) paw","Group 4, 2 h",165.7%
same,"% change from baseline, force on untreated (left) paw","Group 4, 2 h",−24.5%
same,"Force (g) applied, Left paw, individual animals","Group 4, 2 h",100 g (2×) and 70 g and 130 g and 80 g (2×) and 90 g and 60 g
same,"Force (g) applied, Right Paw (inflamed), individual animals","Group 4, 2 h",180 g and 80 g (2×) and 240 g and 70 g (2×) and 120 g and 90 g
same,"Force (g) applied to the inflamed (right) paw, mean","Group 4, 2 h, n=8",116.3 g
same,"Force (g) applied to the untreated (left) paw, mean","Group 4, 2 h, n=8",88.8 g
